# Tested on: UUO-induced renal fibrosis
# Experiment: UUO-induced renal fibrosis, Masson Trichrome staining of kidney sections with image analysis
# Format: in vivo, Sprague Dawley rats
# Settings: rat UUO kidney, day 14; hSAP 2 mg/kg iv q2d days 0-12; enalapril 200 mg/L in drinking water; HSA control approximately 22%, uninjured kidney approximately 5%
# Description: Unilateral Ureter Obstruction (UUO) in the rat is a suitable model of renal fibrosis'. Renal fibrosis was induced in Sprague Dawley rats weighing 200-250 grams. Rats were anesthetized with ketamine (100 mg/kg) and xylazine (5 mg/kg). All surgical procedures were conducted using aseptic techniques.
# The left kidney, renal artery and vein were exposed and the ureter occluded using suture. The surgical site was then sutured closed.
# Human serum albumin in PBS (group 1) or hSAP in PBS (groups 2-5) was given to animals by intravenous (iv) injection every other day from day 0 to day 12 as detailed in Table 4. Enalapril was be added to the drinking water of animals in groups 2, 5 and 6, beginning on the day of study and continuing until sacrifice (day 14).
# On day 14, animals were sacrificed and both the left occluded and right contralateral control kidneys excised.
# To determine the extent of fibrosis induced by 14 days of UUO, kidney sections from all groups of animals were stained with Masson Trichrome and the extent of Trichrome positivity determined using image analysis (see FIG. 1). […] However, there was a significant inhibition in Trichrome staining in the animals treated with the combination of enalapril and hSAP (p<0.05; approximately 10%). […]
row,Molecule,extent of Trichrome staining (collagen deposition in the kidney)
1,"hSAP: human serum amyloid P, a pentraxin family protein that suppresses fibrocyte differentiation",approximately 25%
2,CCOC(=O)[C@H](CCc1ccccc1)N[C@@H](C)C(=O)N1CCC[C@H]1C(=O)O [enalapril],approximately 15%

# From patent publication US8247370B2, “Conjoint therapy for treating fibrotic diseases” (Promedior, Inc., priority 2006, dated 2012)
